# Source: US5165931A, “Peptifluorin and neopeptifluorin” (E. R. Squibb & Sons, Inc., priority 1991, dated 1992)
# Legend:
# Saccharomyces cerevisiae = test: agar dilution MIC assay, yeasts; assay type: cell-based; conditions: 37° C., 36-48 hours
# Method: (§1) The following methodology was used to determine the minimum inhibitory concentration (hereinafter referred to as MIC) of the compound of this invention against bacteria. The test organisms were grown in 20 ml of Antibiotic Assay Broth (Difco) by inoculating the broth (in tubes) with a loopful of the organism from a BHI (Difco) agar slant. The inoculated tubes were incubated at 37° C. for 18 to 24 hours. These cultures were assumed to contain 10^9 colony forming units (CFU) per ml. The cultures were diluted 1:100 to give a final inoculum level of 10^7 CFU; dilutions were made with Yeast Beef Broth (Difco). The test compound was dissolved in an appropriate diluent at a concentration of 1,000 μg/ml. Two-fold dilutions were made in Yeast Beef Broth (Difco), resulting in
# (§2) a range from 1000 μg/ml to 0.5 μg/ml. A 1.5 ml portion of each dilution was placed into individual petri dishes to which 13.5 ml of K-10 agar was added. The composition of K-10 agar is:
# (§3) The final drug concentration in the agar ranged from 100 μg/ml to 0.05 μg/ml. Organism growth control plates containing agar only were prepared and inoculated before and after the test plates. The organisms were applied to the agar surface of each plate with a Denly Multipoint Inoculator (which delivers approximately 0.001 ml of each inoculum) resulting in a final inoculum of 10^4 CFU on the agar surface.
# (§4) The plates were incubated at 37° C. for 18 hours and the MICs determined. The MIC is the lowest concentration of compound inhibiting growth of the organism.
# (§5) The methodology described above was modified in the assay for activity against yeasts. Fresh F-4 slants of the test organisms were obtained from frozen vials (-70° C.). The cultures were inoculated into tubes of F-4 broth and incubated at 37° C. for 18 to 24 hours, at which time the average cell count was assumed to be 5×10^7 CFU per ml. These were diluted 1:50 with fresh F-4 broth to give an inoculum level of 1×10^6 CFU per mL. The organisms were then dispensed into a sterile template (0.8 ml per well) and delivered onto the surface of each plate containing test compound as described above with a Denly Multipoint Inoculator, resulting in a final inoculum of 10^3 CFU on the agar surface.
# (§6) The composition of the F-4 broth is:
# (§7) The medium was sterilized at 121° C. for 15 minutes at 15 psi.
# (§8) F-4 agar has the same composition as the broth but with the addition of 15 g agar per liter.
# (§9) The results of the yeast, agar dilution assays (determined after incubation at 37° C. for 36-48 hours) are: […]
# Candida glabrata = test: agar dilution MIC assay, yeasts; assay type: cell-based; conditions: strain SC 11,267; 37° C., 36-48 hours
# Method: as §1, §2, §3, §4, §5, §6, §7, §8, §9
# Candida krusei = test: agar dilution MIC assay, yeasts; assay type: cell-based; conditions: strain SC 2967; 37° C., 36-48 hours
# Method: as §1, §2, §3, §4, §5, §6, §7, §8, §9
# Candida albicans = test: agar dilution MIC assay, yeasts; assay type: cell-based; conditions: 37° C., 36-48 hours
# Method: as §1, §2, §3, §4, §5, §6, §7, §8, §9
# Candida tropicalis = test: agar dilution MIC assay, yeasts; assay type: cell-based; conditions: 37° C., 36-48 hours
# Method: as §1, §2, §3, §4, §5, §6, §7, §8, §9
# mevalonate kinase = test: inhibition of mevalonate kinase from yeast; assay type: biochemical
# bacteria = test: antibacterial activity (general statement); assay type: cell-based
# Method: as §1, §2
# The final drug concentration in the agar ranged from 100 μg/ml to 0.05 μg/ml. Organism growth control plates containing agar only were prepared and inoculated before and after the test plates. […]
# The plates were incubated at 37° C. for 18 hours and the MICs determined. […]
# yeasts = test: antifungal activity (general statement); assay type: cell-based
# Method: as §5
# Escherichia coli = test: agar dilution MIC assay, bacteria; assay type: cell-based; conditions: K-10 agar, 37° C., 18 hours
# Method: as §1, §2
# (§10) The medium was sterilized at 121° C. for 15 minutes at 15 pounds psi.
# as §3, §4
# (§11) The results of the agar dilution assays with bacteria are: […]
# Enterobacter cloacae = test: agar dilution MIC assay, bacteria; assay type: cell-based; conditions: strain SC 8236; K-10 agar, 37° C., 18 hours
# Method: as §1, §2, §10, §3, §4, §11
# Staphylococcus aureus = test: agar dilution MIC assay, bacteria; assay type: cell-based; conditions: K-10 agar, 37° C., 18 hours
# Method: as §1, §2, §10, §3, §4, §11
# Shigella sonnei = test: agar dilution MIC assay, bacteria; assay type: cell-based; conditions: strain SC 8449; K-10 agar, 37° C., 18 hours
# Method: as §1, §2, §10, §3, §4, §11
# Micrococcus luteus = test: agar dilution MIC assay, bacteria; assay type: cell-based; conditions: strain SC 2495; K-10 agar, 37° C., 18 hours
# Method: as §1, §2, §10, §3, §4, §11
# Salmonella typhosa = test: agar dilution MIC assay, bacteria; assay type: cell-based; conditions: strain SC 1195; K-10 agar, 37° C., 18 hours
# Method: as §1, §2, §10, §3, §4, §11
# Streptococcus faecalis = test: agar dilution MIC assay, bacteria; assay type: cell-based; conditions: strain SC 9011; K-10 agar, 37° C., 18 hours
# Method: as §1, §2, §10, §3, §4, §11
# Klebsiella pneumoniae = test: agar dilution MIC assay, bacteria; assay type: cell-based; conditions: K-10 agar, 37° C., 18 hours
# Method: as §1, §2, §10, §3, §4, §11
# Streptococcus agalactiae = test: agar dilution MIC assay, bacteria; assay type: cell-based; conditions: strain SC 14,008; K-10 agar, 37° C., 18 hours
# Method: as §1, §2, §10, §3, §4, §11
Substance,MIC (Saccharomyces cerevisiae; strain SC 1600) [µg/mL],"MIC (Saccharomyces cerevisiae; strain SC 12,955) [µg/mL]",MIC (Saccharomyces cerevisiae; strain SGY 1139) [µg/mL],MIC (Candida glabrata) [µg/mL],MIC (Candida krusei) [µg/mL],MIC (Candida albicans; strain SC 5314) [µg/mL],MIC (Candida albicans; strain SC 9177) [µg/mL],"MIC (Candida albicans; strain SC 11,422) [µg/mL]",MIC (Candida tropicalis; strain SC 8159) [µg/mL],MIC (Candida tropicalis; strain SC 9861) [µg/mL],inhibiting mevalonate kinase from yeast (mevalonate kinase),antibacterial activity (bacteria),antifungal activity (yeasts),MIC (Escherichia coli; strain SC 8294) [µg/mL],"MIC (Escherichia coli; strain SC 10,857) [µg/mL]","MIC (Escherichia coli; strain SC 10,896) [µg/mL]",MIC (Enterobacter cloacae) [µg/mL],MIC (Staphylococcus aureus; strain SC 1276) [µg/mL],MIC (Staphylococcus aureus; strain SC 2399) [µg/mL],MIC (Staphylococcus aureus; strain SC 2400) [µg/mL],also measured
peptifluorin,12.5,25.0,3.1,12.5,100,12.5,25.0,12.5,12.5,3.1,moderately active,broad spectrum antibacterial activity,antifungal activity,> 100.0,50.0,12.5,25.0,6.3,6.3,6.3,"MIC (Shigella sonnei): 25.0 µg/mL; MIC (Micrococcus luteus): 6.3 µg/mL; MIC (Salmonella typhosa): > 100.0 µg/mL; MIC (Streptococcus faecalis): 6.3 µg/mL; MIC (Klebsiella pneumoniae; strain SC 9527): > 100.0 µg/mL; MIC (Klebsiella pneumoniae; strain SC 10,440): 50.0 µg/mL"
neopeptifluorin,6.3,12.5,1.6,25.0,100,6.3,25.0,12.5,6.3,3.1,moderately active,broad spectrum antibacterial activity,antifungal activity,50.0,12.5,12.5,12.5,3.1,6.3,6.3,"MIC (Streptococcus agalactiae): 6.3 µg/mL; MIC (Shigella sonnei): 25 µg/mL; MIC (Micrococcus luteus): 6.3 µg/mL; MIC (Salmonella typhosa): 100 µg/mL; MIC (Streptococcus faecalis): 6.3 µg/mL; MIC (Klebsiella pneumoniae; strain SC 9527): > 100 µg/mL; MIC (Klebsiella pneumoniae; strain SC 10,440): 25.0 µg/mL"
